Results on eight compounds are retold here after patent US9617256B2 (priority 2007, dated 2017).

Assay [1] concerns APAE006 in the presence of 8 micrograms per milliliter of polymyxin B nonapeptide. The format is cell-based, P. aeruginosa. As to conditions: APAE006 with 8 micrograms per milliliter polymyxin B nonapeptide. The protocol:
(§1) Bacterial isolates were cultivated from −70° C. frozen stocks by overnight passages at 35° C. in ambient air on Mueller-Hinton agar (Beckton Dickinson, Franklin Lakes, N.J.). Clinical isolates tested were obtained from various geographically diverse hospitals in the US and abroad (Focus Diagnostics, Herndon, Va. and JMI, North Liberty, Iowa). Quality control strains were from the American Type Culture Collection (ATCC; Rockville, Md.). Additional primary panel strains were generated using standard molecular biology techniques.
(§2) Minimum Inhibitory Concentrations (MICs) were determined by the broth microdilution method in accordance with the Clinical and Laboratory Standards Institute (CLSI) guidelines. In brief, organism suspensions were adjusted to a 0.5 McFarland standard to yield a final inoculum between 3×10^5 and 7×10^5 colony-forming units (CFU)/mL. Drug dilutions and inocula were made in sterile, cation adjusted Mueller-Hinton Broth (Beckton Dickinson). An inoculum volume of 100 μL was added to wells containing 100 μL of broth with 2-fold serial dilutions of drug. All inoculated microdilution trays were incubated in ambient air at 35° C. for 18-24 hours. […] Performance of the assay was monitored by the use of laboratory quality-control strains and levofloxacin, a compound with a defined MIC spectrum, in accordance with CLSI guidelines.
(§3) *AECO001 is ATCC25922, AECO063 is ATCC25922 bearing an acrAB mutation, APAE001 is ATCC27853, APAE006 is a strain of P. aeruginosa in which all efflux pumps are inactivated, APAE006+PMBN indicates MICs with the indicated strain in the presence of 8 micrograms per milliliter of polymyxin B nonapeptide, AABA1060 is a clinical isolate of Acinetobacter baumannii, ASAU001 is a laboratory strain of S. aureus (ATCC29213).

A further assay concerns AECO001 (ATCC25922). Kind of assay: MIC broth microdilution, AECO001. The class given is cell-based, E. coli. As to conditions: for MIC: Escherichia coli. As for the experimental part:
as §1, §2, §3
(In general: Broth dilution looks for growth in wells or tubes with falling amounts of substance.)

Assay [2] relates to APAE006 (strain of P. aeruginosa in which all efflux pumps are inactivated). Kind of assay: microbe, parasite or virus in culture. The class given is cell-based. As to conditions: Pseudomonas aeruginosa, read-out: MIC APAE006, APAE006, all efflux pumps inactivated. As for the experimental part: as §1, §2, §3
Assay [3] concerns ASAU001 (laboratory strain of S. aureus, ATCC29213). The assay can be described thus: MIC broth microdilution, ASAU001. The class given is cell-based. As to conditions: for MIC: Staphylococcus aureus, ATCC29213, read-out: MIC ASAU001. The protocol: as §1, §2, §3
For the next assay, the system named is APAE001 (ATCC27853). The assay can be described thus: MIC broth microdilution, APAE001. The format is cell-based, P. aeruginosa. The conditions noted are these: Pseudomonas aeruginosa, ATCC27853, read-out: MIC APAE001, APAE001 (ATCC27853). The protocol: as §1, §2, §3
Assay [4] concerns AABA1060 (clinical isolate of Acinetobacter baumannii). Kind of assay: MIC broth microdilution, AABA1060. The class given is cell-based. As to conditions: for MIC: Acinetobacter baumannii, read-out: MIC AABA1060. The protocol: as §1, §2, §3
Assay [5] deals with AECO063 (ATCC25922 bearing an acrAB mutation). Kind of assay: microbe, parasite or virus in culture. As to conditions: for MIC: Escherichia coli, ATCC25922, read-out: MIC AECO063. The format is cell-based, E. coli. The protocol: as §1, §2, §3
[6] abbreviates: ATCC25922, read-out: MIC AECO001.
Setting [7] is: ATCC25922, read-out: MIC AECO001 HSA AGP.

Values after ≈ are worked out from the molar mass of the structure shown. Read-outs that look alike come from different tables or passages of the source.

On to `CC(C)(O)[C@H](NC(=O)c1ccc(C#C/C=C/C2CC2)cc1)C(=O)NO` [Example 107-1, 4-((E)-4-Cyclopropyl-but-3-en-1-ynyl)-N—((S)-2-hydroxy-1-hydroxycarbamoyl-2-methyl-propyl)-benzamide], for which, in assay [1], the “MIC APAE006 + PMBN” value is on record as “A (MIC's of 2.0 μg/mL or less = A)”. The MIC in the assay on AECO001 (ATCC25922) (setting [6]) was under 2 µg/mL; in the assay with AECO001 (ATCC25922) (setting [7]) it was 2 to 16 µg/mL (≈ 5.84 to 46.7 µM); in assay [2], under 2 µg/mL; in assay [3], 16 to 64 µg/mL (≈ 46.7 to 187 µM); in the assay with APAE001 (ATCC27853), under 2 µg/mL; in assay [4], 2 to 16 µg/mL (≈ 5.84 to 46.7 µM). The MIC in assay [5] is under 2 µg/mL.
For `CC(C)(O)[C@H](NC(=O)c1ccc(C#CC#CC2CC2)cc1)C(=O)NO` [Example 91-6], in assay [1], the “MIC APAE006 + PMBN” value is reported as “A (MIC's of 2.0 μg/mL or less = A)”. The MIC in the assay with AECO001 (ATCC25922) (setting [6]) was under 2 µg/mL; in the assay with AECO001 (ATCC25922) (setting [7]), under 2 µg/mL; in assay [2], under 2 µg/mL; in assay [3], 16 to 64 µg/mL (≈ 47 to 188 µM); in the assay on APAE001 (ATCC27853), under 2 µg/mL; in assay [4] it was under 2 µg/mL. Besides, in assay [5], the MIC is under 2 µg/mL.
With `C[C@@H](N)[C@H](NC(=O)c1ccc(C#C/C=C/C2CC2)cc1)C(=O)NO` [Example 107-2], the “MIC APAE006 + PMBN” value in assay [1] was “A (MIC's of 2.0 μg/mL or less = A)”. Further, the MIC in the assay with AECO001 (ATCC25922) (setting [6]) is under 2 µg/mL; in the assay on AECO001 (ATCC25922) (setting [7]), 2 to 16 µg/mL (≈ 6.11 to 48.9 µM); in assay [2] it was under 2 µg/mL; in assay [3] it was 2 to 16 µg/mL (≈ 6.11 to 48.9 µM); in the assay with APAE001 (ATCC27853), under 2 µg/mL; in assay [4] it was under 2 µg/mL. For the same compound, the MIC in assay [5] was under 2 µg/mL.
On to `CC(C)(N)[C@H](NC(=O)c1ccc(C#CC#Cc2ccc(CNC3CC3)cc2)cc1)C(=O)NO` [Example 87-4], for which the “MIC APAE006 + PMBN” value in assay [1] was “A (MIC's of 2.0 μg/mL or less = A)”. Also, the MIC was under 2 µg/mL with AECO001 (ATCC25922) (setting [6]); 2 to 16 µg/mL (≈ 4.5 to 36 µM) in the assay with AECO001 (ATCC25922) (setting [7]); under 2 µg/mL in assay [2]; 16 to 64 µg/mL (≈ 36 to 144 µM) in assay [3]; under 2 µg/mL in the assay with APAE001 (ATCC27853); under 2 µg/mL in assay [4]. Besides, in assay [5], the MIC is under 2 µg/mL.
Take `CC(C)OCc1ccc(C#Cc2ccc(C(=O)N[C@H](C(=O)NO)[C@@H](C)N)cc2)cc1` [Example 124-2]: in assay [1], the “MIC APAE006 + PMBN” value was “A (MIC's of 2.0 μg/mL or less = A)”. Besides, the MIC with AECO001 (ATCC25922) (setting [6]) is under 2 µg/mL; in the assay on AECO001 (ATCC25922) (setting [7]), 2 to 16 µg/mL (≈ 4.88 to 39.1 µM); in assay [2], under 2 µg/mL; in assay [3], 16 to 64 µg/mL (≈ 39.1 to 156 µM); in the assay with APAE001 (ATCC27853) it was 2 to 16 µg/mL (≈ 4.88 to 39.1 µM); in assay [4] it was 2 to 16 µg/mL (≈ 4.88 to 39.1 µM). Besides, the MIC in assay [5] is under 2 µg/mL.
On to `C[C@@H](O)[C@H](NC(=O)c1ccc(C#CC#Cc2ccc(C(F)(F)F)cc2)cc1)C(=O)NO` [Example 82-22], for which, in assay [1], the “MIC APAE006 + PMBN” value is “A (MIC's of 2.0 μg/mL or less = A)”. Besides, in the assay on AECO001 (ATCC25922) (AECO001 (ATCC25922)), the “MIC AECO001” value is “A (MIC's of 2.0 μg/mL or less = A)”. Besides, the MIC (in the assay on AECO001 (ATCC25922) (setting [7]); in assay [2]; in the assay on APAE001 (ATCC27853)) was 16 to 64 µg/mL (≈ 37.2 to 149 µM) in each case. Moreover, the “MIC ASAU001” value in assay [3] (ASAU001 (ATCC29213)) is on record as “C (MIC's of greater than 16.0 μg/mL to 64.0 μg/mL = C)”. Further, the “MIC AABA1060” value in assay [4] (AABA1060 clinical isolate) is on record as “C (MIC's of greater than 16.0 μg/mL to 64.0 μg/mL = C)”. Further, the “MIC AECO063” value in assay [5] (AECO063 (ATCC25922 acrAB mutation)) was “A (MIC's of 2.0 μg/mL or less = A)”.
On to `CC(C)(N)[C@H](NC(=O)c1ccc(C#Cc2ccc(CNCCF)cc2)cc1)C(=O)NO` [Example 122-6], for which the “MIC APAE006 + PMBN” value in assay [1] was “A (MIC's of 2.0 μg/mL or less = A)”. The MIC in the assay with AECO001 (ATCC25922) (setting [6]) was under 2 µg/mL; with AECO001 (ATCC25922) (setting [7]) it was under 2 µg/mL; in assay [2] it was under 2 µg/mL; in assay [3], 16 to 64 µg/mL (≈ 37.5 to 150 µM); in the assay on APAE001 (ATCC27853), under 2 µg/mL; in assay [4] it was 2 to 16 µg/mL (≈ 4.69 to 37.5 µM). In assay [5], the MIC is under 2 µg/mL. In addition, the “Ratio of MICs on AECO001 [Cpd (A = —CHCH3NH2)/Cpd (A = —C(CH3)2NH2)]” value in the assay on AECO001 (ATCC25922) (MIC of paired compound with A = —CHCH3NH2 divided by MIC of compound with A = —C(CH3)2NH2, n=2 data, pairs identical except for the A moiety) amounted to 2.1.
For the compound `CC(C)(O)[C@H](NC(=O)c1ccc(C#Cc2ccc(CN3CCCOCC3)cc2)cc1)C(=O)NO` [Example 122-8], in assay [1], the “MIC APAE006 + PMBN” value is recorded as “A (MIC's of 2.0 μg/mL or less = A)”. Also, the MIC in the assay with AECO001 (ATCC25922) (setting [6]) was under 2 µg/mL; in the assay on AECO001 (ATCC25922) (setting [7]), under 2 µg/mL; in assay [2], under 2 µg/mL; in assay [3], 16 to 64 µg/mL (≈ 34.4 to 137 µM); in the assay on APAE001 (ATCC27853), under 2 µg/mL; in assay [4], 2 to 16 µg/mL (≈ 4.3 to 34.4 µM). For the same compound, the MIC in assay [5] was under 2 µg/mL.
